# Legend:
# Italian ryegrass = experiment: Test C pre-/postemergence test; assay type: in vivo, Lolium multiflorum
# Procedure, shortened: (§1)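 Compounds in a non-phytotoxic solvent with surfactant applied preemergence to seeded pots and, at the same time, postemergence to plants 2–18 cm tall (1- to 4-leaf stage). Paddy tests: pots flooded to 3 cm, compound applied into the water, depth held throughout.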
# kochia = experiment: Test C pre-/postemergence test; assay type: in vivo, Kochia scoparia
# Procedure, shortened: as §1
# barnyardgrass [1] = experiment: Test C flooded paddy test; assay type: in vivo, Echinochloa crus-galli; conditions: Flood
# Procedure, shortened: (§2)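 Pots were flooded to 3 cm above the soil surface at treatment, compound applied directly to the paddy water, and that depth held throughout. Plants were kept in a greenhouse for 13 to 15 days, then visually rated against untreated controls.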
# umbrella sedge = experiment: Test C flooded paddy test; assay type: in vivo, Cyperus difformis; conditions: Flood
# Procedure, shortened: as §2
# Surinam grass = experiment: Test C pre-/postemergence test; assay type: in vivo, Brachiaria decumbens
# Procedure, shortened: as §1
# pigweed = experiment: Test C pre-/postemergence test; assay type: in vivo, Amaranthus retroflexus
# Procedure, shortened: as §1
# bermudagrass = experiment: Test C pre-/postemergence test; assay type: in vivo, Cynodon dactylon
# Procedure, shortened: as §1
# giant foxtail = experiment: Test A pre-/postemergence greenhouse test; assay type: in vivo, Setaria faberi; conditions: for Foxtail, Giant plant response rating: 0 to 100 scale; for Plant response rating, Foxtail, Giant: 0 to 100 scale where 0 is no effect and 100 is complete control
# Procedure, shortened: (§3)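 Two application timings were run side by side in the greenhouse. Before emergence, compound went onto the soil surface of loam–sand pots as a directed spray; after emergence, plants at 2–10 cm and the one- to two-leaf stage were treated. Visual injury versus controls was rated at approximately day ten.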
# crabgrass [2] = experiment: Test C pre-/postemergence test; assay type: in vivo, Digitaria sanguinalis
# Procedure, shortened: as §1
# cocklebur = experiment: Test C pre-/postemergence test; assay type: in vivo, Xanthium strumarium
# Procedure, shortened: as §1
# [3] = tested on: common (oilseed) sunflower; experiment: Test C pre-/postemergence test; assay type: in vivo, Helianthus annuus
# Procedure, shortened: as §1
# Goosegrass = experiment: Test C pre-/postemergence test; assay type: in vivo, Eleusin indica
# Procedure, shortened: as §1
# morningglory = experiment: Test A pre-/postemergence greenhouse test; assay type: in vivo, Ipomoea spp.; conditions: for Morningglory plant response rating: 0 to 100 scale; for Plant response rating, Morningglory: 0 to 100 scale where 0 is no effect and 100 is complete control
# Procedure, shortened: as §3
# crabgrass [4] = experiment: Test A pre-/postemergence greenhouse test; assay type: in vivo, Digitaria sanguinalis; conditions: for Crabgrass, Large plant response rating: 0 to 100 scale; for Plant response rating, Crabgrass, Large: 0 to 100 scale where 0 is no effect and 100 is complete control
# Procedure, shortened: as §3
# lambsquarters = experiment: Test C pre-/postemergence test; assay type: in vivo, Chenopodium album
# Procedure, shortened: as §1
# barnyardgrass [5] = experiment: Test A pre-/postemergence greenhouse test; assay type: in vivo, Echinochloa crus-galli; conditions: for Barnyardgrass plant response rating: 0 to 100 scale; for Plant response rating, Barnyardgrass: 0 to 100 scale where 0 is no effect and 100 is complete control
# Procedure, shortened: as §3
# soybean = experiment: Test C pre-/postemergence test; assay type: in vivo, Glycine max
# Procedure, shortened: as §1
# [6] = 31 g ai/ha, Preemergence, scale 0 to 100
# [7] = 62 g ai/ha, preemergence, scale 0 (no effect) to 100 (complete control)
# [8] = preemergence, 125 g ai/ha, scale 0 (no effect) to 100 (complete control)
# [9] = 31 g ai/ha, scale 0 to 100 (0 no effect, 100 complete control)
# [10] = 62 g ai/ha, scale 0 to 100, 0 no effect, 100 complete control, 13 to 15 days
# [11] = 125 g ai/ha, scale 0 to 100, 0 no effect, 100 complete control, 13 to 15 days
# [12] = 250 g ai/ha, scale 0 to 100 (0 no effect, 100 complete control)
# [13] = Postemergence, 125 g ai/ha, 0 is no effect, 100 is complete control
# [14] = Postemergence, 500 g ai/ha, 0 is no effect, 100 is complete control
# [15] = Preemergence, 125 g ai/ha, 0 no effect, 100 complete control
# [16] = 62 g ai/ha, Preemergence, scale 0 to 100
# [17] = 125 g ai/ha, preemergence, scale 0 (no effect) to 100 (complete control)
# [18] = Preemergence, 31 g ai/ha, scale 0 to 100 (0 no effect, 100 complete control)
# [19] = preemergence, 250 g ai/ha, scale 0 (no effect) to 100 (complete control)
# [20] = 62 g ai/ha, scale 0 to 100 (0 no effect, 100 complete control)
# [21] = 250 g ai/ha, scale 0 to 100, 0 no effect, 100 complete control, 13 to 15 days
compound,measurement,setting,value
Cn1nc(C(F)(F)F)c(C[S+]([O-])c2cccc[n+]2[O-])c1Cl (centres unmarked) [Compound 8],"Ryegrass, Italian plant response rating",Italian ryegrass; [6],0
same,"Ryegrass, Italian plant response rating",Italian ryegrass; [7],50
same,"Plant response rating (0 to 100), Ryegrass, Italian","Italian ryegrass; Preemergence, 250 g ai/ha",95
same,"Ryegrass, Italian plant response rating",Italian ryegrass; [8],70
same,Kochia plant response rating,kochia; [6],40
same,Kochia plant response rating,kochia; [7],45
same,"Plant response rating (0 to 100), Kochia","kochia; Preemergence, 250 g ai/ha",100
same,Kochia plant response rating,kochia; [8],100
same,"Plant response rating, Barnyardgrass",barnyardgrass [1]; [9],0
same,"Plant response rating, Barnyardgrass",barnyardgrass [1]; [10],0
same,"Plant response rating, Barnyardgrass",barnyardgrass [1]; [11],40
same,"Plant response rating, Barnyardgrass",barnyardgrass [1]; [12],85
same,"Plant response rating, Sedge, Umbrella",umbrella sedge; [9],0
same,"Plant response rating, Sedge, Umbrella",umbrella sedge; [10],0
same,"Plant response rating, Sedge, Umbrella",umbrella sedge; [11],85
same,"Plant response rating, Sedge, Umbrella",umbrella sedge; [12],100
same,Surinam Grass plant response rating,Surinam grass; [7],85
same,"Plant response rating (0 to 100), Surinam Grass","Surinam grass; Preemergence, 250 g ai/ha",100
same,Surinam Grass plant response rating,Surinam grass; [8],100
same,Pigweed plant response rating,pigweed; [6],85
same,Pigweed plant response rating,pigweed; [7],100
same,"Plant response rating (0 to 100), Pigweed","pigweed; Preemergence, 250 g ai/ha",100
same,Pigweed plant response rating,pigweed; [8],100
same,Bermudagrass plant response rating,bermudagrass; [6],80
same,Bermudagrass plant response rating,bermudagrass; [7],100
same,"Plant response rating (0 to 100), Bermudagrass","bermudagrass; Preemergence, 250 g ai/ha",100
same,Bermudagrass plant response rating,bermudagrass; [8],100
same,"Foxtail, Giant plant response rating",giant foxtail; [13],80
same,"Foxtail, Giant plant response rating",giant foxtail; [14],90
same,"Foxtail, Giant plant response rating",giant foxtail; [15],100
same,"Plant response rating, Foxtail, Giant","giant foxtail; Preemergence, 500 g ai/ha",100
same,"Crabgrass, Large plant response rating",crabgrass [2]; [6],90
same,"Crabgrass, Large plant response rating",crabgrass [2]; [7],100
same,"Plant response rating (0 to 100), Crabgrass, Large","crabgrass [2]; Preemergence, 250 g ai/ha",100
same,"Crabgrass, Large plant response rating",crabgrass [2]; [8],100
same,Cocklebur plant response rating,cocklebur; [6],0
same,Cocklebur plant response rating,cocklebur; [7],0
same,"Plant response rating (0 to 100), Cocklebur","cocklebur; Preemergence, 250 g ai/ha",5
same,Cocklebur plant response rating,cocklebur; [8],0
same,Sunflower plant response rating,[3]; [7],30
same,"Plant response rating (0 to 100), Sunflower","[3]; Preemergence, 250 g ai/ha",100
same,Sunflower plant response rating,[3]; [8],60
same,Goosegrass plant response rating,Goosegrass; [6],98
same,Goosegrass plant response rating,Goosegrass; [7],100
same,"Plant response rating (0 to 100), Goosegrass","Goosegrass; Preemergence, 250 g ai/ha",100
same,Goosegrass plant response rating,Goosegrass; [8],100
same,Morningglory plant response rating,morningglory; [13],60
same,Morningglory plant response rating,morningglory; [14],70
same,Morningglory plant response rating,morningglory; [15],90
same,"Plant response rating, Morningglory","morningglory; Preemergence, 500 g ai/ha",90
same,"Crabgrass, Large plant response rating",crabgrass [4]; [13],80
same,"Crabgrass, Large plant response rating",crabgrass [4]; [14],90
same,"Crabgrass, Large plant response rating",crabgrass [4]; [15],90
same,"Plant response rating, Crabgrass, Large","crabgrass [4]; Preemergence, 500 g ai/ha",100
same,Lambsquarters plant response rating,lambsquarters; [6],80
same,Lambsquarters plant response rating,lambsquarters; [7],98
same,"Plant response rating (0 to 100), Lambsquarters","lambsquarters; Preemergence, 250 g ai/ha",100
same,Lambsquarters plant response rating,lambsquarters; [8],100
same,Barnyardgrass plant response rating,barnyardgrass [5]; [13],80
same,Barnyardgrass plant response rating,barnyardgrass [5]; [14],80
same,Barnyardgrass plant response rating,barnyardgrass [5]; [15],90
same,"Plant response rating, Barnyardgrass","barnyardgrass [5]; Preemergence, 500 g ai/ha",100
same,Soybean plant response rating,soybean; [6],0
same,Soybean plant response rating,soybean; [7],0
same,"Plant response rating (0 to 100), Soybean","soybean; Preemergence, 250 g ai/ha",90
same,Soybean plant response rating,soybean; [8],80
Cn1nc(C(F)(F)F)c(C[S+]([O-])c2ccc(Cl)c[n+]2[O-])c1OCC(F)F (centres unmarked) [Compound 85],"Ryegrass, Italian plant response rating",Italian ryegrass; [16],90
same,"Ryegrass, Italian plant response rating",Italian ryegrass; [17],90
same,"Plant response rating, Ryegrass, Italian",Italian ryegrass; [18],80
same,"Ryegrass, Italian plant response rating",Italian ryegrass; [19],100
same,Kochia plant response rating,kochia; [16],100
same,Kochia plant response rating,kochia; [17],100
same,"Plant response rating, Kochia",kochia; [18],100
same,Kochia plant response rating,kochia; [19],100
same,"Plant response rating, Barnyardgrass",barnyardgrass [1]; [9],0
same,"Plant response rating, Barnyardgrass",barnyardgrass [1]; [20],0
same,"Plant response rating, Barnyardgrass",barnyardgrass [1]; [11],25
same,"Plant response rating, Barnyardgrass",barnyardgrass [1]; [21],70
same,"Plant response rating, Sedge, Umbrella",umbrella sedge; [9],0
same,"Plant response rating, Sedge, Umbrella",umbrella sedge; [20],45
same,"Plant response rating, Sedge, Umbrella",umbrella sedge; [11],60
same,"Plant response rating, Sedge, Umbrella",umbrella sedge; [21],95
same,Surinam Grass plant response rating,Surinam grass; [16],95
same,Surinam Grass plant response rating,Surinam grass; [17],100
same,"Plant response rating, Surinam Grass",Surinam grass; [18],85
same,Surinam Grass plant response rating,Surinam grass; [19],100
same,Pigweed plant response rating,pigweed; [16],100
same,Pigweed plant response rating,pigweed; [17],100
same,"Plant response rating, Pigweed",pigweed; [18],100
same,Pigweed plant response rating,pigweed; [19],100
same,Bermudagrass plant response rating,"bermudagrass; 62 g ai/ha, Preemergence, scale 0 to 100 (0 no effect, 100 complete control)",100
same,Bermudagrass plant response rating,bermudagrass; [17],100
same,"Plant response rating, Bermudagrass",bermudagrass; [18],90
same,Bermudagrass plant response rating,bermudagrass; [19],100
same,"Plant response rating, Foxtail, Giant","giant foxtail; Postemergence, 125 g ai/ha",90
same,"Foxtail, Giant plant response rating",giant foxtail; [14],90
same,"Foxtail, Giant plant response rating",giant foxtail; [15],100
same,"Plant response rating, Foxtail, Giant","giant foxtail; Preemergence, 500 g ai/ha",100
same,"Crabgrass, Large plant response rating",crabgrass [2]; [16],85
same,"Plant response rating, Crabgrass, Large",crabgrass [2]; [18],80
same,"Crabgrass, Large plant response rating",crabgrass [2]; [19],100
same,Cocklebur plant response rating,cocklebur; [16],0
same,Cocklebur plant response rating,cocklebur; [17],0
same,"Plant response rating, Cocklebur",cocklebur; [18],0
same,Cocklebur plant response rating,cocklebur; [19],0
same,Sunflower plant response rating,[3]; [16],30
same,Sunflower plant response rating,[3]; [17],50
same,Sunflower plant response rating,[3]; [19],80
same,Goosegrass plant response rating,Goosegrass; [16],100
same,Goosegrass plant response rating,Goosegrass; [17],100
same,"Plant response rating, Goosegrass",Goosegrass; [18],100
same,Goosegrass plant response rating,Goosegrass; [19],100
same,"Plant response rating, Morningglory","morningglory; Postemergence, 125 g ai/ha",70
same,Morningglory plant response rating,morningglory; [14],90
same,Morningglory plant response rating,morningglory; [15],60
same,"Plant response rating, Morningglory","morningglory; Preemergence, 500 g ai/ha",100
same,"Plant response rating, Crabgrass, Large","crabgrass [4]; Postemergence, 125 g ai/ha",70
same,"Crabgrass, Large plant response rating",crabgrass [4]; [14],90
same,"Crabgrass, Large plant response rating",crabgrass [4]; [15],80
same,"Plant response rating, Crabgrass, Large","crabgrass [4]; Preemergence, 500 g ai/ha",100
same,Lambsquarters plant response rating,lambsquarters; [16],100
same,Lambsquarters plant response rating,lambsquarters; [17],100
same,"Plant response rating, Lambsquarters",lambsquarters; [18],100
same,Lambsquarters plant response rating,lambsquarters; [19],100
same,"Plant response rating, Barnyardgrass","barnyardgrass [5]; Postemergence, 125 g ai/ha",70
same,Barnyardgrass plant response rating,barnyardgrass [5]; [14],90
same,Barnyardgrass plant response rating,barnyardgrass [5]; [15],70
same,"Plant response rating, Barnyardgrass","barnyardgrass [5]; Preemergence, 500 g ai/ha",100
same,Soybean plant response rating,soybean; [16],100
same,"Plant response rating, Soybean",soybean; [18],100
same,Soybean plant response rating,soybean; [19],100

# Reference: patent US20100298141A1, “SUBSTITUTED PYRIDINE N-OXIDE HERBICIDES” (E. I. DU PONT DE NEMOURS AND COMPANY, priority 2007, published 2010)
